Assay type in all cases: biochemical
In one assay the target is T1, Human MAGL (hMAGL) (Homo sapiens, UniProt Q99685).
T1 construct: hexahistidine; made in house; host or cells: E. coli
T1 sequence (Q99685 1-303): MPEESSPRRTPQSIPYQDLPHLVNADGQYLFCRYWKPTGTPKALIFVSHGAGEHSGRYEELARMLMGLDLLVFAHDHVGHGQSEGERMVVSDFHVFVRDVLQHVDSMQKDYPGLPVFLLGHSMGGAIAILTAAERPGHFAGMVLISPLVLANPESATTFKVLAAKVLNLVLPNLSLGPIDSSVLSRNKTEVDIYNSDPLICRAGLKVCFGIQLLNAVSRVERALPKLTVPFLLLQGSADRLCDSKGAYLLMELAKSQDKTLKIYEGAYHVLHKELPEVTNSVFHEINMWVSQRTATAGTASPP
In words: Fluorescent assay protocol for hMAGL (AHMMCE substrate). The conditions noted are these: recombinant human MAGL, AHMMCE substrate, 15 min preincubation; read-out: IC50 hMAGL. The essentials:
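Hydrolysis of AHMMCE by human MAGL was monitored at 25°C for 120 min, with fluorescence at 360/460 nm recorded every 15 min and converted to 4-methylcoumarin using external standards. IC50 values were derived from triplicate wells at each inhibitor concentration.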

A further assay deals with T2, Human FAAH (MBPΔTMhFAAH) (Homo sapiens, UniProt O00519).
T2 construct: made in house; host or cells: E. coli (pMALcE4 vector)
T2 sequence (O00519 30-579 limits assumed): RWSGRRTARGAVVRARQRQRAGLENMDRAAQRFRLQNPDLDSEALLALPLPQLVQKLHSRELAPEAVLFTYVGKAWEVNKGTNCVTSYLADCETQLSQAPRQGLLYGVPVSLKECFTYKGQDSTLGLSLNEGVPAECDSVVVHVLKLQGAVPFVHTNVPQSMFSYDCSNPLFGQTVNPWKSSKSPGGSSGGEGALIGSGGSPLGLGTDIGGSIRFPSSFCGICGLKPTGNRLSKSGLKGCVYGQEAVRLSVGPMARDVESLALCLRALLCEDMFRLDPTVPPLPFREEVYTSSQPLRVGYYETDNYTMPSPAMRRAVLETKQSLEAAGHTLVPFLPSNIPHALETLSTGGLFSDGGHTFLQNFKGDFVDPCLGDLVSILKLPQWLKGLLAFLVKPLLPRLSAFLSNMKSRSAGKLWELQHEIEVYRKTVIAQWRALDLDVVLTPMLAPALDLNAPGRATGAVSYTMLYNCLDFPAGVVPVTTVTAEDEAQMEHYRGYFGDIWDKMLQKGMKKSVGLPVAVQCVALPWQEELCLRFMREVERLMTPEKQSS
In words: Fluorescent assay protocol for hFAAH. The following applies: human FAAH (MBP fusion, ΔTM), procedure as for rFAAH. In short, it runs like this:
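MBP-fused ΔTM human FAAH from E. coli, pre-incubated 15 min at 25 °C with compound in 50 mM HEPES, 1 mM EDTA, 0.1% BSA, pH 7.4 (DMSO below 8%). Substrate AAMCA 20 μM (2×Km); fluorescence (ex 360/em 460) at 3 h gave % inhibition vs uninhibited control, triplicate, IC50 fitted.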

The target of a further assay is T3, Rat MAGL (rMAGL) (Rattus norvegicus, UniProt Q8R431).
T3 construct: made in house; host or cells: E. coli
T3 sequence (Q8R431 1-303): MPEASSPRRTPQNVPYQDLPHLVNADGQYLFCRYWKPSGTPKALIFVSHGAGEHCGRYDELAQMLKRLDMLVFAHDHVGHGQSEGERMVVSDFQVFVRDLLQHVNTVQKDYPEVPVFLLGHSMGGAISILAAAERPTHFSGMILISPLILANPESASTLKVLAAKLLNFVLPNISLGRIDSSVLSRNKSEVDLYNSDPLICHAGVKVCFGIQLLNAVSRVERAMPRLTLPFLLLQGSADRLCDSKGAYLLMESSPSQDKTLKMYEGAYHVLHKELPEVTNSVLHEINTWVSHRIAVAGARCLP
In words: Fluorescent assay protocol for rMAGL. The conditions noted are these: recombinant rat MAGL, procedure as for hMAGL; read-out: IC50 rMAGL. The essentials:
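Rat MAGL run as for the human enzyme: AHMMCE substrate hydrolysis to fluorescent coumarin followed at 25° C. for 120 min, read every 15 min at 360/460 nm.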

Another assay deals with T4, ΔTM rat FAAH (Rattus norvegicus, UniProt P97612).
T4 construct: Preparation of Transmembrane Domain-Deleted Rat FAAH (ΔTM rFAAH); made in house; host or cells: E. coli
T4 sequence (P97612 30-579 limits assumed): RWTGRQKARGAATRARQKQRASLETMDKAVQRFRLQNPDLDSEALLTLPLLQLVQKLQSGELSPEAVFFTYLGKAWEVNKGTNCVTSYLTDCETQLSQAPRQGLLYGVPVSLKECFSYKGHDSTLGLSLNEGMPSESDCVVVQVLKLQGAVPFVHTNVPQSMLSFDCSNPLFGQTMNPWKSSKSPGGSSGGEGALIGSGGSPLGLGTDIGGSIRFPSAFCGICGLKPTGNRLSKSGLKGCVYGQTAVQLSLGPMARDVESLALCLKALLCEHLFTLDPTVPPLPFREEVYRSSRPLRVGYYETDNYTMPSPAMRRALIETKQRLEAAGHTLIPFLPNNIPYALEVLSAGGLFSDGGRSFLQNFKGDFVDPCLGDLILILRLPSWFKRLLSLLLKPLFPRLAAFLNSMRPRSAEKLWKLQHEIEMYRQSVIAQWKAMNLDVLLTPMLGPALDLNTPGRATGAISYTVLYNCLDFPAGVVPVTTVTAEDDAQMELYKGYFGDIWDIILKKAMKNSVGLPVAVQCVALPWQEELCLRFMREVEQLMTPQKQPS
In words: Fluorescent assay protocol for ΔTM rat FAAH (AAMCA substrate). The conditions noted are these: 15 min preincubation, read-out: IC50 rFAAH. The essentials: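 ΔTM rat FAAH (15 μg) was pre-incubated 15 min at 25° C with compound (screening at 1, 10 and 100 μM), then reacted with the fluorigenic substrate AAMCA. Percent inhibition came from fluorescence at 3 h (linear kinetics) relative to no-inhibitor controls, in triplicate.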

From patent publication US11214578B2, “Urea/carbamates FAAH MAGL or dual FAAH/MAGL inhibitors and uses thereof” (Northeastern University, priority 2014, dated 2022) come the findings set out here.

The IC50 is the concentration that gives 50% inhibition.

Structures are written as SMILES.

On to `CC(c1ccccc1)N1CCN(C(=O)Oc2cccc(C#N)c2)CC1` (stereo not drawn) [Example 36, 3-cyanophenyl 4-(1-phenylethyl)piperazine-1-carboxylate], for which the IC50 at Human MAGL (hMAGL) is greater than 1000 nM; at Human FAAH (MBPΔTMhFAAH), 10 to 100 nM; at Rat MAGL (rMAGL) it was greater than 1000 nM; on ΔTM rat FAAH, 10 to 100 nM.
For `N#Cc1cc(O)cc(OC(=O)N2CCN(C(c3ccccc3)c3ccccc3)CC2)c1` [Example 38, 3-cyano-5-hydroxyphenyl 4-benzhydrylpiperazine-1-carboxylate], the IC50 on Human MAGL (hMAGL) is greater than 1000 nM; on Human FAAH (MBPΔTMhFAAH), 110 to 1000 nM; on Rat MAGL (rMAGL), greater than 1000 nM; on ΔTM rat FAAH, 110 to 1000 nM.
On to `O=C(Oc1cccc(Cl)n1)N1CCN(C(c2ccccc2)c2ccccc2)CC1` [Example 39, 6-chloropyridin-2-yl 4-benzhydrylpiperazine-1-carboxylate], for which the concentration for half-maximal inhibition (IC50) at Human MAGL (hMAGL) is greater than 1000 nM; at Human FAAH (MBPΔTMhFAAH), 110 to 1000 nM; on Rat MAGL (rMAGL), greater than 1000 nM; on ΔTM rat FAAH, 110 to 1000 nM.
In the case of `N#Cc1ccnc(OC(=O)N2CCN(C3c4ccccc4-c4ccccc43)CC2)c1` [Example 42, 4-cyanopyridin-2-yl 4-(9H-fluoren-9-yl)piperazine-1-carboxylate], the IC50 was 10 to 100 nM at Human MAGL (hMAGL), greater than 1000 nM at Human FAAH (MBPΔTMhFAAH), 10 to 100 nM at Rat MAGL (rMAGL) and greater than 1000 nM on ΔTM rat FAAH.
With `N#Cc1cccnc1OC(=O)N1CCN(C2c3ccccc3-c3ccccc32)CC1` [Example 43, 3-cyanopyridin-2-yl 4-(9H-fluoren-9-yl)piperazine-1-carboxylate], the IC50 was 10 to 100 nM on Human MAGL (hMAGL), greater than 1000 nM on Human FAAH (MBPΔTMhFAAH), 10 to 100 nM at Rat MAGL (rMAGL) and greater than 1000 nM on ΔTM rat FAAH.
Consider `N#Cc1ccc(F)c(OC(=O)N2CCC(Cc3ccccc3)CC2)c1` [Example 45, 5-Cyano-2-fluorophenyl 4-benzylpiperidine-1-carboxylate], for which the 50% inhibitory concentration (IC50) on Human MAGL (hMAGL) is greater than 1000 nM; at Human FAAH (MBPΔTMhFAAH), 10 to 100 nM; at Rat MAGL (rMAGL) it was greater than 1000 nM; at ΔTM rat FAAH it was 10 to 100 nM.
Take `N#Cc1cccc(OC(=O)N2CCC(=C(c3ccccc3)c3ccccc3)CC2)c1` [Example 47, 3-cyanophenyl 4-(diphenylmethylene)piperidine-1-carboxylate]: the IC50 is greater than 1000 nM on Human MAGL (hMAGL), 10 to 100 nM on Human FAAH (MBPΔTMhFAAH), greater than 1000 nM on Rat MAGL (rMAGL) and 10 to 100 nM on ΔTM rat FAAH.
Take `COC(=O)c1cccc(OC(=O)N2CCC(=C(c3ccccc3)c3ccccc3)CC2)c1` [Example 48, 3-(methoxycarbonyl)phenyl 4-(diphenylmethylene)piperidine-1-carboxylate]: the IC50 at Human MAGL (hMAGL) was greater than 1000 nM; on Human FAAH (MBPΔTMhFAAH) it was 10 to 100 nM; at Rat MAGL (rMAGL), greater than 1000 nM; at ΔTM rat FAAH, 110 to 1000 nM.
For `N#Cc1cccc(OC(=O)N2CCC(OC(c3ccc(Cl)cc3)c3cccnc3Cl)CC2)c1` (stereo not drawn) [Example 53, 3-cyanophenyl 4-((4-chlorophenyl)(2-chloropyridin-3-yl)methoxy)piperidine-1-carboxylate], the IC50 at Human MAGL (hMAGL), at Human FAAH (MBPΔTMhFAAH), on Rat MAGL (rMAGL) and at ΔTM rat FAAH was 10 to 100 nM each time.
Turning to `O=C(Oc1cccc(Cl)n1)N1CCC(C(c2ccccc2)c2ccccc2)CC1` [Example 54, 6-Chloropyridin-2-yl 4-(benzhydryl)piperidine-1-carboxylate], the IC50 is 110 to 1000 nM on Human MAGL (hMAGL), 10 to 100 nM on Human FAAH (MBPΔTMhFAAH), 110 to 1000 nM on Rat MAGL (rMAGL) and 110 to 1000 nM on ΔTM rat FAAH.
Turning to `COC(=O)c1cccc(OC(=O)N2CCC(OC(c3ccccc3)c3ccccc3)CC2)c1` [Example 55, 3-(methoxycarbonyl)phenyl 4-(benzhydryloxy)piperidine-1-carboxylate], the concentration for half-maximal inhibition (IC50) was in the range of 10 to 100 nM on Human MAGL (hMAGL), 10 to 100 nM at Human FAAH (MBPΔTMhFAAH), 110 to 1000 nM on Rat MAGL (rMAGL) and 10 to 100 nM at ΔTM rat FAAH.
For the molecule `N#Cc1ccc(F)c(OC(=O)N2CCC(OC(c3ccccc3)c3ccccc3)CC2)c1` [Example 56, 5-cyano-2-fluorophenyl 4-(benzhydryloxy)piperidine-1-carboxylate], the IC50 on Human MAGL (hMAGL), at Human FAAH (MBPΔTMhFAAH), at Rat MAGL (rMAGL) and on ΔTM rat FAAH was 110 to 1000 nM throughout.
On to `O=C(Oc1cccc(Cl)n1)N1CCC(OC(c2ccccc2)c2ccccc2)CC1` [Example 57, 6-chloropyridin-2-yl 4-(benzhydryloxy)piperidine-1-carboxylate], for which the IC50 at Human MAGL (hMAGL) was 10 to 100 nM; on Human FAAH (MBPΔTMhFAAH) it was greater than 1000 nM; at Rat MAGL (rMAGL) it was 10 to 100 nM; at ΔTM rat FAAH it was greater than 1000 nM.
For the molecule `N#Cc1cccc(OC(=O)N2CCC(S(=O)(=O)c3ccc(Br)cc3)CC2)c1` [Example 59, 3-Cyanophenyl 4-(4-bromophenylsulfonyl)piperidine-1-carboxylate], the IC50 lay within 10 to 100 nM on Human MAGL (hMAGL), 10 to 100 nM at Human FAAH (MBPΔTMhFAAH), 10 to 100 nM on Rat MAGL (rMAGL) and 110 to 1000 nM at ΔTM rat FAAH.
With `N#Cc1ccc(F)c(OC(=O)N2CCC(S(=O)(=O)c3ccc(Br)cc3)CC2)c1` [Example 60, 5-Cyano-2-fluorophenyl 4-(4-bromophenylsulfonyl)piperidine-1-carboxylate], the IC50 was in the range of 10 to 100 nM at Human MAGL (hMAGL), 10 to 100 nM at Human FAAH (MBPΔTMhFAAH), 10 to 100 nM at Rat MAGL (rMAGL) and 110 to 1000 nM at ΔTM rat FAAH.
Consider `Cc1ccc(C#N)cc1OC(=O)N1CCC(S(=O)(=O)c2ccc(Br)cc2)CC1` [Example 61, 5-Cyano-2-methylphenyl 4-(4-bromophenylsulfonyl)piperidine-1-carboxylate], for which the IC50 at Human MAGL (hMAGL) is greater than 1000 nM; on Human FAAH (MBPΔTMhFAAH) it was 10 to 100 nM; at Rat MAGL (rMAGL) it was 10 to 100 nM; at ΔTM rat FAAH, 10 to 100 nM.
With `COc1ccc(C#N)cc1OC(=O)N1CCC(S(=O)(=O)c2ccc(Br)cc2)CC1` [Example 62, 5-Cyano-2-methoxyyphenyl 4-(4-bromophenylsulfonyl)piperidine-1-carboxylate], the IC50 was greater than 1000 nM on Human MAGL (hMAGL), 10 to 100 nM on Human FAAH (MBPΔTMhFAAH), 10 to 100 nM at Rat MAGL (rMAGL) and 10 to 100 nM on ΔTM rat FAAH.
`O=C(Oc1c(F)cccc1F)N1CCC(S(=O)(=O)c2ccc(Br)cc2)CC1` [Example 63, 2,6-Difluorophenyl 4-(4-bromophenylsulfonyl)piperidine-1-carboxylate]: the IC50 on Human MAGL (hMAGL) was 110 to 1000 nM; at Human FAAH (MBPΔTMhFAAH) it was greater than 1000 nM; at Rat MAGL (rMAGL), 110 to 1000 nM; on ΔTM rat FAAH, greater than 1000 nM.
